From patent publication US11484516B2, “Agents for increasing meibomian gland lipid secretion” (Azura Ophthalmics Ltd., priority 2017, dated 2022)

Columns and labels:
[1] = system: 3D Sebocytes culture (human cell line SEBO662); assay: Lipid accumulation (Oil-red-O staining) in 3D model culture of Sebocytes; type: cell-based; conditions: 14 days incubation, lipid droplet surface area
Text: Since secretory cells (meibocytes) of meibomian glands, share similarities with that of the secretory cells (sebocytes) of sebaceous glands, as can be validated from their similar structure, similar function and their joint embryologic development (Knop 2011_IOVS) the effect of Thiol containing Lipids on lipid production can be evaluated in a 3D model culture of Sebocytes. See also: Barrault 2012, Immortalized sebocytes can spontaneously differentiate into a sebaceous-like phenotype when cultured as a 3D epithelium, Exp. Derm, 21:299-319
The effect of different compounds on lipid synthesis was evaluated, in a 3D model culture of Sebocytes. Drug candidates were compounds comprising a thiol group. Selenium disulfide (SeS2 dispersed in CarboxymethylCellulose—CMC) as a positive control. Since Sebocytes differentiation is associated with increased lipid synthesis and accumulation, evaluation of proliferation and differentiation was done by quantifying lipid accumulation in the 3D Sebocytes culture (human cell line—SEBO662). Lipid accumulation was evaluated by lipid staining with Oil red staining.
Sebocytes SEBO662 were cultured into a three dimension (3D) epithelium and differentiated to a sebaceous-like phenotype. The Sebocytes were treated or not (control) with the test compounds and incubated for 14 days. All experiments were performed 3 times. After incubation, tissues were snap-frozen. Formaldehyde-fixed cryo sections were stained using an Oil-red-O solution and counterstained using haematoxylin. For each test condition, the sections were observed using a light microscope equipped with a camera. Five pictures were taken per replicate, making 15 values per treatment condition. The lipid content in each sample was quantified by calculation of the lipid droplet surface area. Quantitative comparison of all data points between lipid's droplet surface area of tested compounds versus control was performed

[2] = Ex vivo free thiol determination in the human skin model system; conditions: non-toxic concentrations
Description: (§1) Dose response and time course analyses was performed initially in order to evaluate the impact of bucillamine on HaCaT cell viability. Then, selected non-toxic concentrations were further evaluated by BrdU incorporation to determine the ability of the test item to reduce the keratinocyte proliferation rate. In addition, the ability of the test items to reduce thiol moieties, and therefore loosen the blockage of the meibomian gland, was tested on stratum corneum obtained from human skin.
(§2) The cells were incubated without or with six concentrations of the test item, for 24, 48 and 72 hr at 37° C. with 5% CO2 under humidified conditions. At the end of each incubation period, cell viability was measured by MTT assay. A blank control was subtracted from all the measurements. HaCaT Turnover Rate Determination The proliferation rate of HaCaT cells upon treatments with the test item was examined by using the BrdU assay. Colorimetric evaluation of the turnover rate was recorded by ELISA reader. Ex Vivo Assessment in the Human Skin Model System The human skin organ culture was obtained from healthy patient undergoing plastic surgery. The study was initiated the day of surgery.
To isolate the free thiol from the mixture of the samples, samples were incubated with equal volume of TCA (trichloroacetic acid) for 5 min. […] The pellets were evaluated.

HaCaT cells = assay: HaCaT turnover rate determination (BrdU assay); type: cell-based; conditions: BrdU incorporation, non-toxic concentrations
Description: as §1, §2

SMILES: S=[Se]=S [Selenium disulfide]
- lipid accumulation in the upper region of the 3D Sebocytes (% of the control) ([1]; 0.01 μM): 282 % of the control
- lipid accumulation in the upper region of the 3D Sebocytes (% of the control) ([1]; 0.1 μM): 348 % of the control

SMILES: CC(C)(S)C(=O)N[C@@H](CS)C(=O)O [Bucillamine, bucillamine]
- increase of free thiol moieties (keratolytic efficacy) [2]: approx. 6 fold
- keratostatic efficacy: turnover rate of the keratinocytes cells (HaCaT cells): reducing the turnover rate
- lipid accumulation in the upper region of the 3D Sebocytes (% of the control) ([1]; 0.01 μM): 115 % of the control
- lipid accumulation in the upper region of the 3D Sebocytes (% of the control) ([1]; 0.1 μM): 172 % of the control
- lipid accumulation in the upper region of the 3D Sebocytes (% of the control) ([1]; 1 μM): 214 % of the control
